Experiments:
[1] = Gravimetric vapour sorption (GVS); format: physicochemical
Procedure: Sorption isotherms were obtained using a Hiden IGASorp moisture sorption analyser, controlled by CFRSorp software. The sample temperature was maintained at 25° C. by a Huber re-circulating water bath. The humidity was controlled by mixing streams of dry and wet nitrogen, with a total flow rate of 250 ml/min. The relative humidity (RH) was measured by a calibrated Vaisala RH probe (dynamic range of 0-95% RH), located near the sample. The weight change, (mass relaxation) of the sample as a function of % RH was constantly monitored by the microbalance (accuracy ±0.001 mg). Typically 10-20 mg of sample was placed in a tared mesh stainless steel basket under ambient conditions. The sample was loaded and unloaded at 40% RH and 25° C. (typical room conditions). A moisture sorption isotherm was performed as outlined below (2 scans giving 1 complete cycle). The standard isotherm was performed at 25° C. at 10% RH intervals over a 0-90% RH range.
The software uses a least squares minimisation procedure together with a model of the mass relaxation, to predict an asymptotic value. The measured mass relaxation value must be within 5% of that predicted by the software, before the next % RH value is selected. The minimum equilibration time was set to 1 hour and the maximum to 4 hours. The sample was recovered after completion of the isotherm and re-analysed by XRPD.

[2] = Polymorphism study: maturation (temperature cycling RT to 50° C.) in solvents, XRPD; format: physicochemical; conditions: three days
Procedure: One of 21 solvents was added to each vial in a number of aliquots (up to 30 volumes), with shaking. All the samples were then placed under maturation between RT to 50° C. (4 hours at each temperature) for 3 days. After maturation the samples were analysed by XRPD. Clear solutions were cooled to −20° C. (freezer). If no precipitation occurred samples were evaporated at RT.
Samples were placed under maturation between RT-50° C. (4 hours cycle) for 3 days. After maturation the samples were analyzed by XRPD. Clear solutions were then cooled to −20° C. (freezer). If no precipitation occurred, samples were evaporated at RT.
The corresponding solvents and solvent mixtures were added in portions of (a total of) 5, 10, 20, and 30 volumes at 50° C., with shaking, aiming for clear solutions. After each addition, the vials were allowed to shake for 20 minutes, after which observations were made. Solutions were allowed to evaporate, whereas slurries were set for 8 hour temperature cycling maturation, between RT and 50° C., for 5 days.
The oils obtained by solvent evaporation were used for the maturation screen. Anhydrous solvents (5 volumes; 100 μL) were used in order to minimise the amount of water present. Any solutions were allowed to slowly evaporate, whereas slurries were set for 8 hour temperature cycling maturation, between RT and 50° C. […] These were matured for a further 24 hours before performing XRPD analysis.
The selected solvents and solvent mixtures (5 to 20 volumes) were added with stirring. Any solutions were allowed to slowly evaporate, whereas slurries were set for 8 hour temperature cycling maturation, between RT and 50° C., for 2 days.
Crystals were ground in order to analyse them by XRPD. Suspensions were set for temperature cycling for a total of five days after which time XRPD analysis was carried out.

[3] = Storage at 25° C./93% RH for 1 week, re-analysis by XRPD/HPLC; format: physicochemical; conditions: for stability on storage at 25° C./93% RH: 1 week
[4] = Storage at 40° C./75% RH (elevated humidity) for 1 week, re-analysis by XRPD/HPLC; conditions: 1 week, form
Procedure: The crystalline solids were filtered, dried at ambient conditions, and stored at 40° C./75% RH for 1 week and analyzed by ^1H NMR/IC.
Samples from the screen using amorphous free base Compound 1 were analysed by ^1H-NMR and DSC, and re-analysis by XRPD was also carried out after drying at 50° C./vacuum and storage at 40° C./75% RH (the same sample was dried and stored at elevated humidity).

[5] = Thermodynamic aqueous solubility; format: physicochemical; conditions: at pH 6.85
[6] = Solubility of free base hydrate and salts versus pH (Table 24); format: physicochemical
[7] = Solubility assessment using FB Hydrate Form 2; format: physicochemical
Procedure: The best solvent systems (clear solutions) were methanol:anisole 1:1 and DMSO (10 volumes, at RT), dioxane (10 volumes, 50° C.), chloroform (20 volumes, RT). […]

Dissolution = format: physicochemical
Procedure: The dissolution rate for the hydrate was about 80% in 15 min at pH 1.2 and about 20% in 60 min at pH 2.5. The dissolution rate of the bis-sulfuric acid salt was 100% in 15 min at both pH 1.2 and pH 2.5.

[8] = Stability of Hydrate Form 2: maturation in water or acetic acid: water 1:3 at constant temperature; format: physicochemical; conditions: 40 hours
Procedure: Both solids obtained from maturation at 25° C.

[9] = 2-Week comparative stability studies; format: physicochemical; conditions: 2 weeks
Procedure: (closed); (ii) ambient (closed); (iii) ambient (closed-exposed to light); (iv) ambient (open); (v) 60° C. (closed); (vi) RT/75% RH (open); and (vii) 40° C./75% RH (open).

SMILES: COc1cc(-c2cccc3cc([C@H](C)Nc4nc(N)ncc4C#N)n(-c4ccccc4)c(=O)c23)ccn1 [Form 1 of the free base of Compound 1]
- GVS: moisture on loading [1]: 0.7 % w/w
- GVS behaviour (hydration / desolvation) ([1]; listed as Free base Form 1): hydrates to a higher hydrate above 80% RH
- GVS: uptake between 80-90% RH ([1]; with hysteresis on desorption): 4.0 % w/w
- XRPD form after maturation in acetic acid: water 1:1 ([2]; listed as hydrate Form 1 of free base Compound 1): Form 6
- stability on storage at 25° C./93% RH [3]: converts to Form 3 of the free base of Compound 1
- stability on storage at 25° C./93% RH ([3]; listed as Free base Form 1): conversion to Form 3
- Stability at 25° C./93% RH ([3]; form): Conversion to Form 3 (FIG. 31)
- Stability at 40° C./75% RH [4]: No changes in form after 1 week
- Thermodynamic aqueous solubility [5]: 4 µg/mL

SMILES: COc1cc(-c2cccc3cc([C@H](C)Nc4nc(N)ncc4C#N)n(-c4ccccc4)c(=O)c23)ccn1 [Form 2 of the free base of Compound 1]
- GVS: changes in the XRPD after the experiment [1]: very slight changes
- GVS: moisture uptake on loading ([1]; between 40-50% RH): 1 % w/w
- GVS: moisture content on desorption ([1]; between 90-10% on desorption): 5.7 % w/w
- XRPD form after maturation in acetic acid: water 1:1 ([2]; listed as hydrate Form 2 of free base Compound 1): did not show any changes in form
- Solubility ([6]; 0.1N HCl, 37° C., at saturation): 16 mg/mL
- Solubility ([6]; Simulated Gastric Fluid): 8.13 mg/mL
- Solubility ([6]; Simulated Intestinal Fluid): 0.002 mg/mL
- Solubility ([6]; citrate buffer, pH 2.5): 0.2-0.3 mg/mL ^
- volumes of solvent giving a clear solution ([7]; 2-methyltetrahydrofuran): 50 volumes
- volumes of solvent giving a clear solution ([7]; DCM): 100 volumes
- volumes of solvent giving a clear solution ([7]; DCM:methanol 1:1): 100 volumes
- volumes of solvent giving a clear solution ([7]; DME): 100 volumes
- volumes of solvent giving a clear solution ([7]; DMSO, at RT): 10 volumes
- volumes of solvent giving a clear solution ([7]; THF): 100 volumes
- volumes of solvent giving a clear solution ([7]; THF:5% water): 50 volumes
- volumes of solvent giving a clear solution ([7]; acetonitrile/5% water): 100 volumes
- volumes of solvent giving a clear solution ([7]; chloroform, RT): 20 volumes
- volumes of solvent giving a clear solution ([7]; dioxane, 50° C.): 10 volumes
- volumes of solvent giving a clear solution ([7]; ethanol:anisole): 50 volumes
- volumes of solvent giving a clear solution ([7]; methanol): 100 volumes
- volumes of solvent giving a clear solution ([7]; methanol:anisole 1:1, at RT): 10 volumes
- dissolution rate (Dissolution; in 15 min at pH 1.2, listed as hydrate): about 80%
- dissolution rate (Dissolution; in 60 min at pH 2.5): about 20%
- stability on storage at 25° C./93% RH [3]: stable
- stability on storage at 25° C./93% RH ([3]; listed as Free base Form 2): mainly the same pattern with a few differences
- XRPD form after maturation ([8]; acetic acid: water 1:3, 25° C.): unchanged Form 2
- XRPD form after maturation ([8]; acetic acid: water 1:3, 90° C.): some evidence of the acetic acid solvate Form 6 mixed with a majority of Form 2
- XRPD form after maturation ([8]; pure water, 25° C.): unchanged Form 2
- XRPD form after maturation ([8]; pure water, 90° C.): Form 2
- change in appearance ([9]; 5° C. (closed), ambient (closed), ambient (closed-exposed to light), ambient (open), 60° C. (closed), RT/75% RH (open), 40° C./75% RH (open)): No change in appearance
- change of water content, as determined by KF ([9]; all seven storage conditions): No significant change

Source: patent US20160024051A1, “SALTS AND SOLID FORMS OF ISOQUINOLINONES AND COMPOSITION COMPRISING AND METHODS OF USING THE SAME” (INFINITY PHARMACEUTICALS, INC., priority 2013, published 2016)
